Data as given in BigSolDB 2.1.

CC1(C)CO[P+]([O-])(Oc2c(Br)cc(Br)cc2Br)OC1
solubility (mole fraction)
Settings	in THF	in acetone	in acetonitrile	in chloroform	in dichloromethane	in ethanol	in ethyl acetate	in methanol	in methyl acetate	in toluene
288.15 K	–	–	–	0.0801	0.0492	–	–	–	0.0053	–
293.15 K	0.024	0.0131	0.00399	0.0844	0.0546	0.0025	0.00497	0.00195	0.00649	0.00784
298.15 K	0.0258	0.0153	0.00504	0.0882	0.0594	0.00298	0.00564	0.0024	0.00765	0.009
303.15 K	0.0303	0.0171	–	0.0947	0.0653	0.00358	–	0.00296	0.00867	0.0103
308.15 K	0.0329	0.0194	0.00755	0.1	0.0712	0.00414	0.00748	0.00354	0.0107	–
313.15 K	0.0374	0.0226	0.00936	0.106	–	0.00465	0.00853	0.00424	0.0119	0.0145
318.15 K	0.0409	0.0254	–	0.113	–	0.00556	0.00951	–	0.0138	–
323.15 K	0.0448	0.0295	0.0128	–	–	0.00643	0.0111	0.00614	0.0163	0.0195
328.15 K	–	–	–	0.124	–	–	0.0127	–	–	–
333.15 K	–	–	0.0184	–	–	0.00795	0.0143	0.0081	–	0.0268
343.15 K	–	–	0.0265	–	–	–	–	–	–	0.0349
